Publication PMC10487843, “Evaluation of Anticancer and Anti-Inflammatory Activities of Some Synthetic Rearranged Abietanes” (International Journal of Molecular Sciences, 2023)
Values after ≈ are worked out from the molar mass of the structure shown.

Assays:
HT29 cells [1] = assay: Annexin V-FITC/PI flow cytometry apoptosis analysis; assay type: cell-based, human; details: HT29, 72 h; for total apoptosis, % of cell population: control 9%
Text: To further investigate the potential mechanisms underlying the cytotoxic and cytostatic effects of compounds 5 and 13 on HT29 cells, Annexin V–FITC/PI double staining along with […] cell sorter (FACS) cytometry analysis was employed for determinate apoptosis induction. This assay allowed for the distinction of different cell populations, including normal cells (Annexin V− PI−), early apoptotic cells (Annexin V+ PI−), late apoptotic cells (Annexin V+ PI+), and necrotic cells (Annexin V− PI+).
These assays on the HT29 cell line were conducted 72 h after treatment with the selected rearranged abietanes at their corresponding IC50 and IC80 concentrations.
Flow cytometry was used to detect annexin V-FICT and PI double staining, to quantify the pro-apoptotic impact of compounds 5 and 13. Apoptosis was assessed through flow cytometry using a FACScan flow cytometer (Coulter Corporation, Hialeah, FL, USA). In this assay, 5 × 10^4 HT29 cells were plated in 24-well plates with 1.5 mL of medium and incubated for 24 h. The cells were then treated with the selected compounds in triplicate for 24, 48, and 72 h at their corresponding IC50 and IC80 concentrations. The cells were harvested and resuspended in a binding buffer (10 mM HEPES/NaOH with pH 7.4, 140 mM NaCl, and 2.5 mM CaCl2). Subsequently, Annexin V-FITC conjugate (1 µg/mL) was added and incubated for 15 min in the dark at room temperature. The cells were stained with 5 µL of 1 mg/mL PI solution before analysis. Approximately 10 × 10^3 cells were analyzed in each experiment; the experiments were performed twice, each with three replications per assay.

HT29 cells [2] = assay: HT29 cell cycle analysis (PI flow cytometry); assay type: cell-based, human; details: HT29, 72 h
Experimental: Flow cytometry was employed to assess the impact of compounds 5 and 13 on the cell cycle profiles of HT29 cells after 72 h of treatment; by using propidium iodide (PI) incorporation, whose fluorescence directly correlated with DNA content, we analyzed the distribution of cells in different cell cycle phases.
The amount of DNA in the different phases of the cell cycle (G0/G1, S, and G2/M) was quantified using flow cytometry after staining with propidium iodide (PI). HT29 cells were seeded at a density of 5 × 10^4 cells per well in 24-well plates containing 1.5 mL of culture medium. […] Next, the cells were washed twice with PBS, trypsinized, and resuspended in 1 × TBS (10 mM Tris and 150 mM NaCl). After this, Vindelov buffer (100 mM Tris, 100 mM NaCl, 10 mg/mL Rnase, 1 mg/mL PI, and 0.1% Triton x-100, pH 8) was added. Finally, the cells were kept on ice and stained with 20 μL of 1 mg/mL PI solution before being measured. Each experiment analyzed approximately 10 × 10^3 cells. The experiments were performed twice, each with three replications per assay. The samples were analyzed using a flow cytometer, and the number of cells in each stage of the cell cycle was estimated by […] cell sorting (FACS) at 488 nm in an Epics XL flow cytometer (Coulter Corporation, Hialeah, FL, USA).

[3] = RAW 264.7 cell viability (MTT); assay type: cell-based, murine; details: mouse, RAW 264.7 monocyte/macrophage cells; RAW 264.7, MTT, 0–100 μg/mL; read-out: IC50 (cytotoxicity)
Experimental: To evaluate the cytotoxic effects of the synthesized abietanes (5, 7, 13, 17, and 19) on RAW 264.7 monocyte/macrophage murine cells and to establish sub-cytotoxic concentrations for anti-inflammatory testing, we conducted cell viability assays using the MTT method. Each compound was tested at increasing concentration levels (0–100 μg/mL), and the IC50 values were determined by interpolation in the sigmoidal cytotoxicity curves (Figure 8). […] Additionally, sub-cytotoxic concentrations corresponding to ¾ IC50, ½ IC50, and ¼ IC50 were determined and selected for subsequent anti-inflammatory assays, ensuring that the observed effects were specifically attributed to the anti-inflammatory properties of the compounds rather than cytotoxicity. The human colorectal adenocarcinoma cell line HT29 (ECACC no. 9172201; ATCC no. HTB-38), the human hepatocarcinoma cell line HepG2 (ECACC no. 85011430), the mouse melanoma cells B16–F10 (ATCC no. CRL-6475), and the murine monocyte/macrophage like RAW 264.7 cell line (ATCC no, TIB-71) were obtained from the cell bank of the University of Granada, Spain. The tumor cell lines were cultured in DMEM (Dulbecco’s modified Eagle’s medium) supplemented with 2 mM glutamine, 10% heat-inactivated FCS (fetal calf serum), and 50 μg/mL of gentamicin (for all cancer cell lines). The RAW 264.7 cell line was cultured in RPMI1640 medium, supplemented with 2 mM glutamine, 10% heat-inactivated FCS, and 50 μg/mL of gentamicin. All cell lines were incubated at 37 °C, in an atmosphere of 5% CO2 and 95% humidity. The culture media were changed every 48 h, and the confluent cultures were separated with a trypsin solution (0.25% EDTA). In all experiments, monolayer cells were grown to 80–90% confluence in sterile cell culture flasks. The effects of the compounds on the cell viability were established using the MTT method (Sigma, St. Louis, MO, USA). The cytotoxicity of the compounds was assessed by measuring the absorbance of MTT dye staining of metabolically competent cells. The cells were cultivated in 96-well plates at 6.0 × 10^3 cells/mL for the HT29 and RAW 264.7 cell lines, at 5.0 × 10^3 cells/mL for B16–F10 cells, and 15.0 × 10^3 cells/mL for the HepG2 cell line, with a final volume of 200 μL per well being incubated with the different products (0–100 μg/mL). After 72 h, 100 μL of MTT solution (0.5 mg/mL) in 50% of PBS and 50% of the medium was added to each well. Following incubation for 1.5 h, formazan was resuspended in 100 μL of DMSO, and each concentration was tested in triplicate. The cell viability relative to the untreated control cells was determined by measuring the absorbance at 570 nm using an ELISA plate reader (Tecan Sunrise MR20–301, TECAN, Grödig, Austria).

Row | SMILES | early apoptosis, % of cell population (HT29 cells [1]; IC50 concentration) | late apoptosis, % of cell population (HT29 cells [1]; IC50 concentration) | percentage of necrotic cells (HT29 cells [1]; IC50 concentration, control 3%) | total apoptosis, % of cell population (HT29 cells [1]; IC50 concentration) | early apoptosis, % of cell population (HT29 cells [1]; IC80 concentration) | late apoptosis, % of cell population (HT29 cells [1]; IC80 concentration) | total apoptosis, % of cell population (HT29 cells [1]; IC80 concentration) | increase in the cell population in the S phase compared with the control (HT29 cells [2]; IC50 dose) | increase in the cell population in the S phase compared with the control (HT29 cells [2]; IC80 dose) | IC50 at 72 h [3] | increase in the cell population in the S phase compared with the control (HT29 cells [2]; regardless of the administered dose (IC50 and IC80))
1 | CC(C)C1=CC2=C(C(=O)C1=O)C1=CC(=O)CC(C)(C)[C@@]1(C)C=C2 [Compound 5, Pygmaeocin B] | 5% | 17% | 15% | 22% | 12% | 23% | 35% | 4% | 10% | 0.14 ± 0.09 µg/mL (≈ 0.451 µM) | 
2 | CC(C)C1=CC2=C(C(=O)C1=O)[C@@]1(C)CCCC(C)(C)[C@@H]1CC2 [Compound 13] | 6% | 12% |  | 18% | 7% | 14% | 21% |  |  | 8.18 ± 1.86 µg/mL (≈ 27.2 µM) | 10%
